Experimental data published in PubChem BioAssay (NCI).
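48-hour exposure; five concentrations; linearly interpolated endpoints. At the GI50, growth is halved. The concentration for full growth arrest is given as TGI.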

Legend:
Assay in all cases: NCI tumour cell line growth inhibition, 48 h
786-0 renal = tested on: 786-0 renal
SK-MEL-2 melanoma = tested on: SK-MEL-2 melanoma
SNB-19 CNS = tested on: SNB-19 CNS
HCT-15 colon = tested on: HCT-15 colon
OVCAR-4 ovarian = tested on: OVCAR-4 ovarian
SK-MEL-5 melanoma = tested on: SK-MEL-5 melanoma
SF-295 CNS = tested on: SF-295 CNS
OVCAR-3 ovarian = tested on: OVCAR-3 ovarian
UACC-62 melanoma = tested on: UACC-62 melanoma
DU-145 prostate = tested on: DU-145 prostate

SMILES	TGI (786-0 renal) [µM]	TGI (SK-MEL-2 melanoma) [µM]	TGI (SNB-19 CNS) [µM]	TGI (HCT-15 colon) [µM]	TGI (OVCAR-4 ovarian) [µM]	TGI (SK-MEL-5 melanoma) [µM]	TGI (SF-295 CNS) [µM]	TGI (OVCAR-3 ovarian) [µM]	TGI (UACC-62 melanoma) [µM]	TGI (DU-145 prostate) [µM]	GI50 (DU-145 prostate) [µM]	GI50 (786-0 renal) [µM]	GI50 (SK-MEL-2 melanoma) [µM]	GI50 (SNB-19 CNS) [µM]	GI50 (HCT-15 colon) [µM]	GI50 (OVCAR-4 ovarian) [µM]	GI50 (SK-MEL-5 melanoma) [µM]	GI50 (SF-295 CNS) [µM]	GI50 (OVCAR-3 ovarian) [µM]	GI50 (UACC-62 melanoma) [µM]
COc1cccc(-c2cc(=O)c3cc(C)c(C)c(C(=O)O)c3o2)c1	> 100	> 100	> 100	> 100	> 100	> 100	> 100	> 100	> 100	–	–	–	–	–	–	–	–	–	–	–
Nc1nc(=O)c2[nH]cnc2n1O	> 100	> 100	> 100	> 100	> 100	> 100	> 100	> 100	> 100	> 100	–	–	–	–	–	–	–	–	–	–
COc1ccc(-c2c(-c3cc4c(c(OC)c3OC)OCO4)noc2N)cc1	41.6	–	> 100	> 100	> 100	> 69.4	> 100	0.812	> 100	> 100	0.502	0.49	0.235	0.661	0.391	0.671	0.311	0.275	0.184	0.534
O=C(NCCN1CCOCC1)Nc1nc2ccc(Sc3nnc4ccc(-c5ccc(F)cc5)nn34)cc2s1	5.39	> 91.2	> 100	> 100	–	> 28.6	1.95	> 100	21.4	> 100	> 100	1.59	> 44.3	2.8	> 26.7	–	–	0.101	> 100	6.16
C=C(c1ccccc1)[C@@]1(O)CCCC[C@H]1NC(c1ccccc1)c1ccccc1	25.5	27.4	36.7	24.5	34.5	22.8	25.1	24.7	27.8	–	–	–	–	–	–	–	–	–	–	–
CCOC(=O)C1Nc2ccc([N+](=O)[O-])cc2[C@H]2OCC[C@@H]12 (some centres undefined)	> 100	> 100	> 100	> 100	> 100	> 100	> 100	> 100	> 100	–	–	–	–	–	–	–	–	–	–	–
CN1CCN2c3ccccc3CC(C#N)(C#N)C2C1 (centres undefined)	> 100	> 100	> 100	> 100	> 100	> 100	> 100	> 100	> 100	–	–	–	–	–	–	–	–	–	–	–
COc1cc(-c2nn(-c3ccc(NC(=O)Nc4ccc(Cl)c(C(F)(F)F)c4)cc3)cc2-c2ccncc2)ccc1Cl	4.27	–	8.13	3.22	8.45	2.94	–	3.59	3.75	7.52	2.47	1.8	–	2.53	1.44	2.34	1.56	–	1.57	1.77
CC12CCC(=O)N1c1cc([N+](=O)[O-])ccc1N2 (centres undefined)	> 100	> 100	> 100	> 100	> 100	> 100	> 100	> 100	> 100	–	–	–	–	–	–	–	–	–	–	–
CC(=O)CC(=O)ON(C)C(C)=O	> 100	–	> 100	–	89.1	> 100	> 100	> 100	> 100	–	–	–	–	–	–	–	–	–	–	–
CC(C)(C)c1cc(O)c2c(c1O)C(=O)CCC2	> 100	–	> 100	> 100	> 100	39.2	99.2	76.5	80.5	–	–	–	–	–	–	–	–	–	–	–
CCOc1ccc(NC(=O)/C(Cc2nc3ccccc3[nH]c2=O)=N\O)cc1	> 100	> 100	> 100	> 100	> 100	> 100	–	> 100	> 100	–	–	–	–	–	–	–	–	–	–	–
C[C@]12CC[C@H](OC(=O)Cc3ccc(N(CCCl)CCCl)cc3)CC1CC[C@@H]1C2CC[C@]2(C)NC(=O)CCC12 (some centres undefined)	29	48.7	> 100	30.6	28.9	32.5	25.2	14.8	21.4	–	–	–	–	–	–	–	–	–	–	–
CCOC(=O)NC(=O)c1cn(CC(=O)NCC(=O)NCC(=O)N2CCN(CCn3c(C)nc(C(N)=O)c3N)CC2)c(=O)[nH]c1=O	> 100	> 100	> 100	> 100	–	> 100	> 100	–	> 100	–	–	–	–	–	–	–	–	–	–	–
Cc1cc(Cl)ccc1NC(=O)C1C(=O)C(=O)N(c2ccc(Cl)cc2C)C1=O (centres undefined)	> 100	> 100	68.1	> 100	> 100	> 100	> 100	> 100	> 100	–	–	–	–	–	–	–	–	–	–	–
N#CC1=C(c2ccccc2)NN(Cc2ccccc2)C(c2ccc(Cl)cc2)CC1=O (centres undefined)	98.4	> 100	72.8	90.6	75.9	> 100	> 100	–	–	–	–	–	–	–	–	–	–	–	–	–
COC(=O)c1ccc(CS(=O)(=O)c2ccccc2)cc1	> 100	> 100	> 100	> 100	> 100	> 100	> 100	> 100	> 100	–	–	–	–	–	–	–	–	–	–	–
O=C1C[C@@H]2[C@@H](C=CC23CC3)N1O	> 100	> 100	> 100	–	> 100	> 100	> 100	–	> 100	–	–	–	–	–	–	–	–	–	–	–
Cc1ccc2oc(=O)cc(CC(=O)O)c2c1	> 100	> 100	> 100	> 100	> 100	> 100	> 100	> 100	> 100	–	–	–	–	–	–	–	–	–	–	–
C/C(=N\NC(=O)C[n+]1ccccc1)c1sc(-c2nc(C)c(/C(C)=N/NC(=O)C[n+]3ccccc3)s2)nc1C	> 100	> 100	> 100	> 100	–	> 100	> 100	> 100	> 100	–	–	–	–	–	–	–	–	–	–	–
CC(=O)O[C@H]1CC[C@@]2(C)C(=CC[C@@H]3C2CC[C@]2(C)C(=O)NC(=O)CC32)C1 (some centres undefined)	> 100	> 100	> 100	> 100	> 100	> 100	> 100	–	> 100	–	–	–	–	–	–	–	–	–	–	–

SMILES	TGI (786-0 renal) [µM]	TGI (SK-MEL-2 melanoma) [µM]	TGI (SNB-19 CNS) [µM]	TGI (HCT-15 colon) [µM]	TGI (OVCAR-4 ovarian) [µM]	TGI (SK-MEL-5 melanoma) [µM]	TGI (SF-295 CNS) [µM]	TGI (OVCAR-3 ovarian) [µM]	TGI (UACC-62 melanoma) [µM]	TGI (DU-145 prostate) [µM]	GI50 (DU-145 prostate) [µM]	GI50 (786-0 renal) [µM]	GI50 (SK-MEL-2 melanoma) [µM]	GI50 (SNB-19 CNS) [µM]	GI50 (HCT-15 colon) [µM]	GI50 (OVCAR-4 ovarian) [µM]	GI50 (SK-MEL-5 melanoma) [µM]	GI50 (SF-295 CNS) [µM]	GI50 (OVCAR-3 ovarian) [µM]	GI50 (UACC-62 melanoma) [µM]
O=C1C2c3[nH]c4ccccc4c3C3CCC(c4ccccc4)CC3C2C(=O)N1c1ccccc1 (centres undefined)	> 100	–	> 100	> 100	> 100	> 100	> 100	> 100	> 100	–	–	–	–	–	–	–	–	–	–	–
N#Cc1c(N)n(C2OC(CO)C(O)C2O)c2ncnc(N)c12 (centres undefined)	5.55	–	> 84.2	0.164	> 100	0.279	2.45	0.156	0.0941	> 17.4	–	–	–	–	–	–	–	–	–	–
COc1ccc(C(=C(C#N)C#N)c2ccc(OC)cc2)cc1	> 100	> 100	> 100	> 100	> 100	–	> 100	> 100	> 100	–	–	–	–	–	–	–	–	–	–	–
CC[C@@]1(O)C(=O)OCc2c1cc1n(c2=O)Cc2cc3c([N+](=O)[O-])c(O)ccc3nc2-1	0.432	6.67	> 27.8	> 100	8.73	2.39	2.2	8.26	0.265	–	–	0.0477	2.27	0.0661	2.71	2.22	0.459	0.155	1.6	0.0255
COc1cccc(-c2cc(C(=O)Nc3ccc(Cl)cc3)nc(N)n2)c1	> 100	> 100	> 100	> 100	> 100	> 100	> 100	> 100	> 100	–	–	–	–	–	–	–	–	–	–	–
CO[C@H](C(=O)O[C@H]1C(=O)N2CCC3CCC1C32C)c1ccccc1 (some centres undefined)	> 100	> 100	> 100	> 100	> 100	> 100	> 100	> 100	> 100	–	–	–	–	–	–	–	–	–	–	–
Clc1cc(Cl)cc(C2SCc3nc4ccccc4n32)c1 (centres undefined)	32.4	46.1	66.9	–	–	25.7	29.3	38.3	> 100	–	–	–	–	–	–	–	–	–	–	–
[O-]c1ccccc1[C-]=Nc1ccccc1O.[O-]c1ccccc1[C-]=Nc1ccccc1O.[O]=[U]=[O]	35.9	37.3	–	36.3	46.8	43	43.5	29.5	31.1	–	–	13.1	13.2	–	3.56	12.1	8.38	16.4	4.13	10.4
CN1C(=O)C(C)(C)NS1(=O)=O	> 100	> 100	> 100	> 100	> 100	> 100	> 100	> 100	> 100	–	–	–	–	–	–	–	–	–	–	–
CCOc1cccc2sc(N)nc12	> 100	> 100	> 100	> 100	> 100	> 100	> 100	> 100	> 100	–	–	–	–	–	–	–	–	–	–	–
Cc1cc(N(CCC#N)CCC#N)ccc1/C=C(\NC(=O)/C=C/c1ccccc1)NC(=O)Nc1ccccc1C	> 100	> 100	> 100	> 100	> 100	> 100	> 100	> 100	> 100	–	–	–	–	–	–	–	–	–	–	–
O=C1C2=C(C(=O)c3c(O)ccc(O)c31)N(c1cccnc1)Cc1ccccc1O2	0.605	4.78	10.7	0.648	–	2.99	8.4	–	0.396	1.17	0.351	0.211	1.54	2.6	0.167	–	1.33	2.43	–	0.183
C=CCNC(=O)ON1C(=O)CCC1=O	> 100	> 100	> 100	> 100	> 100	–	> 100	> 100	> 100	–	–	–	–	–	–	–	–	–	–	–
NC(N)=NS(=O)(=O)c1ccc(NC(=O)c2cccn3c(=O)c4ccccc4nc23)cc1	> 100	–	> 100	–	> 100	> 100	> 100	> 100	> 100	–	–	–	–	–	–	–	–	–	–	–
COC(=O)CCC(=O)Nc1cccc(C(F)(F)F)c1	> 100	> 100	> 100	> 100	> 100	> 100	> 100	> 100	> 100	–	–	–	–	–	–	–	–	–	–	–
O=C(/C=C/c1ccc[nH]1)c1ccccc1	> 100	> 100	> 100	> 100	> 100	> 100	> 100	> 100	> 100	–	–	–	–	–	–	–	–	–	–	–
CC(C)COC(=O)N1N=NC2C3CC(=O)C(O3)C21 (centres undefined)	> 100	> 100	> 100	> 100	> 100	> 100	> 100	> 100	> 100	–	–	–	–	–	–	–	–	–	–	–
C=CC1CC12C(=O)C1OC2(C)C2C(=O)c3c(O)cccc3C(=O)C12 (centres undefined)	> 100	> 100	> 100	44.6	–	–	–	–	–	–	–	29.1	50	87.8	19.1	–	–	–	–	–
C=C(c1ccc(OC)c(/C=C/C(=O)c2cc(OC)c(OC)c(OC)c2)c1)c1cc(OC)c(OC)c(OC)c1	3.7	12.4	–	2.79	> 100	2.5	14.9	3.18	2.16	3.11	1.32	1.68	2.58	–	0.552	3.7	1.18	2.9	1.53	0.498
COc1ccc(-c2cnc(SCC(=O)c3c(C)n(C)n(-c4ccccc4)c3=O)n2-c2ccc(OC)cc2)cc1	> 50	> 50	> 50	> 50	–	> 50	> 50	> 50	> 50	> 50	9.13	> 50	> 50	> 50	> 50	–	22.3	> 50	> 50	> 50
Clc1cc2nc[nH]c2cc1Cl	> 100	> 100	> 100	> 100	> 100	–	> 100	> 100	> 100	–	–	–	–	–	–	–	–	–	–	–
